Test results as given in patent US7998903B2, “Glycerol-modified silicone spreading agent and a composition comprising the same” (Shin-Etsu Chemical Co., Ltd., priority 2004, dated 2011).

Columns and labels:
[1] = Degree of solubility (miscibility) of the silicone in oil agents; assay type: physicochemical; parameters: key: “D” means “dispersed”; “I” means “insoluble.”; A silicone with no mark means that it dissolved to form a transparent solution
Protocol: (§1) The present invention will be explained in detail with reference to the following Examples, but not limited to them. In the Examples, surface tension was measured with a full automatic tensiometer, model PD-W, ex Kyowa Interface Science Co. Ltd., at 25 degrees C. according to the water drop method in which a contact angle with the air is measured. A surface tension of dimethylpolysiloxane having a viscosity of 30 mm^2/s at 25 degrees C. measured according to this method was 18.2 mN/m. In the tables shown below, “D” and “I” each represents a degree of solubility: “D” means “dispersed” and “I” means “insoluble.” A silicone with no mark means that it dissolved to form a transparent solution.
(§2) Some properties and solubility in oil agents were determined with each of the glycerol-modified silicone prepared in Examples 1 to 5. Surface tension of the mixtures of the silicone and the oil agent were measured, too.

[2] = Surface tension of silicone/oil agent mixtures, automatic tensiometer, 25 degrees C.; assay type: physicochemical; settings: for Surface Tension, glycerol-modified silicone/oil agent = 10/90, Liquid paraffin / Surface Tension, glycerol-modified silicone/oil agent = 10/90, Rapeseed oil / Surface Tension, glycerol-modified silicone/oil agent = 10/90, Soybean oil: 25 C.; for Surface Tension, glycerol-modified silicone/oil agent = 10/90, Liquid paraffin: silicone/liquid paraffin = 10/90, neat liquid paraffin 27.9; for Surface Tension, glycerol-modified silicone/oil agent = 10/90, Rapeseed oil: silicone/rapeseed oil = 10/90, neat rapeseed oil 31; for Surface Tension, glycerol-modified silicone/oil agent = 10/90, Soybean oil: silicone/soybean oil = 10/90, neat soybean oil 31.8; for Surface tension, amount added 1 wt % / Surface tension, amount added 5 wt % / Surface tension, amount added 10 wt % / Surface tension, amount added 15 wt %: Table 5, oil agent not named; for Surface tension, amount added 1 wt %: 1 wt % silicone; for Surface tension, amount added 5 wt %: 5 wt % silicone; for Surface tension, amount added 10 wt %: 10 wt % silicone; for Surface tension, amount added 15 wt %: 15 wt % silicone
Protocol: as §1, §2
Silicones modified with compounds other than glycerol were prepared. Mixtures with the oil agents were prepared and surface tension thereof was measured as in Examples.
Compositions were prepared containing an oil agent and the glycerol-modified silicone in a weight ratio of 90/10 and surface tension thereof was measured.
Silicones without having a glycerol residue and silicones having a structure other than, A-B-A, were prepared and subjected to the measurements as in Examples. Mixtures with the oil agents were prepared each of which surface tension was measured as in Examples.

[3] = system: leaf of Citrus Natsudaidai; assay: Spreading of one drop of liquid paraffin containing silicone on a leaf (FIGS. 1 & 2); settings: 15 μl drop of liquid paraffin containing 10 wt % silicone; 5 minutes after placing
Protocol: FIGS. 1 & 2 are photographs each taken 5 minutes after one drop, i.e., 15 μl, of liquid paraffin containing 10 wt % of the silicone of Example 2 and Comparative Example 6, respectively, was placed on a leaf of Citrus Natsudaidai. […] Comparing the figures, the liquid paraffin containing the glycerol-modified silicone in Example 2 has better spreading property than the silicone modified with n-octene.

Row | SMILES | Surface Tension, glycerol-modified silicone/oil agent = 10/90, Liquid paraffin [2] [mN/m] | Surface Tension, glycerol-modified silicone/oil agent = 10/90, Rapeseed oil [2] [mN/m] | Surface Tension, glycerol-modified silicone/oil agent = 10/90, Soybean oil [2] [mN/m] | Surface tension, amount added 1 wt % [2] [mN/m] | Surface tension, amount added 5 wt % [2] [mN/m] | Surface tension, amount added 10 wt % [2] [mN/m] | Surface tension, amount added 15 wt % [2] [mN/m] | further results
1 | C[Si](C)(CCCOCC(O)CO)O[Si](C)(C)CCCOCC(O)CO (stereo not shown) [Comparative Example 1] |  |  |  |  |  |  |  | Miscibility, glycerol-modified silicone/oil agent = 10/90, Liquid paraffin ([1]; silicone/liquid paraffin = 10/90): (I); Miscibility, glycerol-modified silicone/oil agent = 10/90, Rapeseed oil ([1]; silicone/rapeseed oil = 10/90): (I); Miscibility, glycerol-modified silicone/oil agent = 10/90, Soybean oil ([1]; silicone/soybean oil = 10/90): (I)
2 | CCCCCCCCCCCC[Si](C)(O[Si](C)(C)C)O[Si](C)(C)C [compound 7] | 26.3 |  |  |  |  |  |  | 
3 | C[Si](C)(C)O[Si](C)(C)CCCOCC(O)CO (stereo not shown) [Example 1] | 21.3 | 22.6 | 21.9 |  |  |  |  | 
4 | CCCCCCCC[Si](C)(O[Si](C)(C)C)O[Si](C)(C)C [Comparative Example 6] | 25.5 | 24.5 | 24.9 | 27.4 | 25.3 | 25.5 | 24.4 | spreading of a drop on a leaf [3]: remained as a small circle
5 | C[Si](C)(C)O[Si](C)(CCCCCO)O[Si](C)(C)C [compound 10] | 25.4 |  |  | 26.6 | 25 | 25.4 | 22.7 | 
6 | CCC(CO)(CO)COCCC[Si](C)(O[Si](C)(C)C)O[Si](C)(C)C [compound 15] | 22.1 | 25.3 | 26 |  |  |  |  | 
7 | CC(CCO)C[Si](C)(O[Si](C)(C)C)O[Si](C)(C)C (stereo not shown) [compound 11] | 23.7 | 24.9 | 24.3 | 27 | 24.4 | 23.7 | 23.7 | 
8 | CCC(CO)(CO)COCCC[Si](C)(C)O[Si](C)(C)C [compound 14] | 23 | 26.9 | 27.5 |  |  |  |  | 
9 | CCCCCCCC[Si](C)(C)O[Si](C)(C)O[Si](C)(C)C [compound 8] | 25 |  |  |  |  |  |  | 
